This note sets out measurements from patent US20230406831A1, “COMPOUNDS AND METHODS OF INHIBITING BACTERIAL CHAPERONIN SYSTEMS” (THE TRUSTEES OF INDIANA UNIVERSITY, priority 2020, published 2023).

Where two headings read alike, the source gives them in different places.

The target in one test is T1, native MDH (Sus scrofa, UniProt P00346).
T1 construct: soluble pig heart MDH from Roche, product #10127248001; purchased Roche 10127248001; host or cells: pig heart
T1 sequence (P00346 25-338): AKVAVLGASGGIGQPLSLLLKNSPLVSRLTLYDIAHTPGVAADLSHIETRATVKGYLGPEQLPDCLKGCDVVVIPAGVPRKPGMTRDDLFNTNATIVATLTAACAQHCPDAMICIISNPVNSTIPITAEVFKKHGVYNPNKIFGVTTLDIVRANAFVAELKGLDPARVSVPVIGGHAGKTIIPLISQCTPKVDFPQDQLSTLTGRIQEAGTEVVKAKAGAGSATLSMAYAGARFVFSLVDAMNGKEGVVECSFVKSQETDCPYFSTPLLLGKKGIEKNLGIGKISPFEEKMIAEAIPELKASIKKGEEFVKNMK
The test can be described thus: Native MDH enzymatic activity counter-screen. Type of test: biochemical, pig. On the procedure: Counter-screening compounds for inhibition of native MDH enzymatic activity.
Reagent Preparations & Assay Protocol: This assay was performed as described above for the GroEL/ES-dMDH refolding assay; however, the assay protocol differed in the sequence of compound addition to the assay plates. The refolding reactions were allowed to proceed for 45 min at 37° C. in the absence of test compounds (complete refolding of MDH occurs), then quenched with the EDTA stock. Compounds were then pin-transferred into the plates after the EDTA quenching step; thus, compounds effects are only possible by inhibiting the fully-refolded MDH reporter substrate. Next enzymatic activity of the refolded MDH was initiated by addition of 20 μL MDH enzymatic assay stock (20 mM sodium mesoxalate and 2.4 mM NADH in reaction buffer, 50 mM Tris pH 7.4, 50 mM KCl, 1 mM DTT), and followed by measuring the NADH absorbance in each well at 340 nm using a Molecular Devices SpectraMax Plus384 microplate reader
A340 nm measurements were recorded at 0.5 minutes (start point) and at successive time points until the amount of NADH consumed reached ˜90% (end point, generally between 20-35 minutes). Compounds were tested in 8-point, 3-fold dilution series (62.5 μM to 29 nM during the reporter reaction) in clear, flat-bottom 384-well microtiter plates.
DMSO was used as a negative control, and previously discovered native MDH inhibitors were used as positive controls. IC50 values for the test compounds were obtained by plotting the % inhibition results in GraphPad Prism 6 and analyzing by non-linear regression using the log (inhibitor) vs. response (variable slope) equation. Results presented represent the averages of IC50 values obtained from at least quadriplicate (duplicate of duplicate) replicates.

A further test addresses T2, GroEL/ES (Escherichia coli, UniProt P0A6F5).
T2 construct: made in house; host or cells: GroEL in E. coli DH5a; GroES in E. coli BL21 (DE3)
The test can be described thus: GroEL/ES-mediated dMDH refolding assay. The class given is biochemical, E. coli. On the procedure:
(§1) Evaluation of compounds ability to inhibit GroEL/ES and HSP60/10-mediated dMDH refolding assays.
(§2) Reagent preparation: For these assays, four primary reagent stocks were prepared: 1) GroEL/ES-dMDH or HSP60/10-dMDH binary complex stock; 2) ATP initiation stock; 3) EDTA quench stock; 4) MDH enzymatic assay stock. Denatured MDH (dMDH) was prepared by 2-fold dilution of MDH (5 mg/ml, soluble pig heart MDH from Roche, product #10127248001) with denaturant buffer (7 M guanidine-HCl, 200 mM Tris, pH 7.4, and 50 mM DTT). MDH was completely denatured by incubating at room temperature for 45 min. The binary complex solutions were prepared by slowly adding the dMDH stock to a stirring stock with GroEL (or HSP60) in folding buffer (50 mM Tris-HCl, pH 7.4, 50 mM KCl, 10 mM MglC2, and 1 mM DTT), followed by addition of GroES (or HSP10). The binary complex stocks were prepared immediately prior to dispensing into the assay plates and had final protein concentrations of 83.3 nM GroEL (Mr 800 kDa) or HSP60 (Mr 400 kDa), 100 nM GroES or HSP10 (Mr 70 kDa), and 20 nM dMDH in folding buffer. For the ATP initiation stock, ATP solid was diluted into folding buffer to a final concentration of 2.5 mM. Quench solution contained 600 mM EDTA (pH 8.0). The MDH enzymatic assay stock consisted of 20 mM sodium mesoxalate and 2.4 mM NADH in reaction buffer (50 mM Tris-HCl, pH 7.4, 50 mM KC1, and 1 mM DTT).
(§3) Assay Protocol: First, 30 μL aliquots of the GroEL/ES-dMDH or HSP60/10-dMDH binary complex stocks were dispensed into clear, 384-well polystyrene plates. Next, 0.5 μL of the compound stocks (10 mM to 4.6 μM, 3-fold dilutions series in DMSO) were added by pin-transfer (V&P Scientific). The chaperonin-mediated refolding cycles were initiated by addition of 20 IA of ATP stock (reagent concentrations during refolding cycle: 50 nM GroEL or HSP60, 60 nM GroES or HSP10, 12 nM dMDH, 1 mM ATP, and compounds of 100 μM to 46 nM, 3-fold dilution series). The refolding reactions were incubated at 37° C. The incubation time was determined from refolding time-course control experiments until they reached ˜90% completion of refolding cycle — generally ˜20-40 min for GroEL/ES, and ˜40-60 min for HSP60/10). Next, the assay was quenched by addition of 10 μL of the EDTA to final concentration of 100 mM. […] A340 nm measurements were recorded at 0.5 minutes (start point) and at successive time points until the amount of NADH consumed reached ˜90% (end point, generally between 20-35 minutes). The differences between the start and end point A340 values were used to calculate the % inhibition of the GroEL/ES or HSP60/10 machinery by the compounds. IC50 values for the test compounds were obtained by plotting the % inhibition results in GraphPad Prism 6 and analyzing by non-linear regression using the log (inhibitor) vs. response (variable slope) equation. Results presented represent the averages of IC50 values obtained from at least quadriplicate (duplicate of duplicate) replicates. For results, see Tables 1, 2, and 3.

Another test concerns the target T3, HSP60/10 (Homo sapiens, UniProt P10809).
T3 construct: octa-Histidine (His8) tag, TEV-cleavable (N, cleaved yes); made in house; host or cells: HSP60 in Rosetta 2 (DE3) E. coli; HSP10 in Rosetta 2 (DE3) pLysS
The test can be described thus: HSP60/10-mediated dMDH refolding assay. The class given is biochemical. As for the experimental part: as §1, §2, §3

Where [1] appears, read: Table 2, compounds added after refolding and EDTA quench, read-out: Biochemical Assay IC50 Native MDH Activity.
Where [2] appears, read: Table 2, 37° C., 1 mM ATP, read-out: Biochemical Assay IC50 HSP60/10-dMDH Refolding.
[3] abbreviates: Table 3, compounds added after refolding and EDTA quench, read-out: Biochemical Assay IC50 Native MDH Activity.
Setting [4] is: Table 3, 37° C., 1 mM ATP, read-out: Biochemical Assay IC50 HSP60/10-dMDH Refolding.

T3 sequence (P10809 27-573): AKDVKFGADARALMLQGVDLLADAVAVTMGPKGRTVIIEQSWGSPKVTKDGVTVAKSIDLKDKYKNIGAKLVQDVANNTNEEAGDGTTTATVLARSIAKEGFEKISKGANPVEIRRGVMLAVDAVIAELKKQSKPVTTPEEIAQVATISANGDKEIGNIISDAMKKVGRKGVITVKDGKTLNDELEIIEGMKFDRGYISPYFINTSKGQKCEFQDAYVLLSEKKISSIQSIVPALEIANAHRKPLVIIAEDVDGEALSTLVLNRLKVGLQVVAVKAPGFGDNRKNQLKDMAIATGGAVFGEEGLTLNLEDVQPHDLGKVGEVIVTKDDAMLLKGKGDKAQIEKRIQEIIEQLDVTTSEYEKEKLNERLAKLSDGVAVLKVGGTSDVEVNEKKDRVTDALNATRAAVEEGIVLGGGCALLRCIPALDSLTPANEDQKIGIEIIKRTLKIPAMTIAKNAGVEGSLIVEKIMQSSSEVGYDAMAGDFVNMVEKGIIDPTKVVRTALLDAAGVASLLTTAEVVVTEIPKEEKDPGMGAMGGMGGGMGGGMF
T2 sequence (P0A6F5 2-548): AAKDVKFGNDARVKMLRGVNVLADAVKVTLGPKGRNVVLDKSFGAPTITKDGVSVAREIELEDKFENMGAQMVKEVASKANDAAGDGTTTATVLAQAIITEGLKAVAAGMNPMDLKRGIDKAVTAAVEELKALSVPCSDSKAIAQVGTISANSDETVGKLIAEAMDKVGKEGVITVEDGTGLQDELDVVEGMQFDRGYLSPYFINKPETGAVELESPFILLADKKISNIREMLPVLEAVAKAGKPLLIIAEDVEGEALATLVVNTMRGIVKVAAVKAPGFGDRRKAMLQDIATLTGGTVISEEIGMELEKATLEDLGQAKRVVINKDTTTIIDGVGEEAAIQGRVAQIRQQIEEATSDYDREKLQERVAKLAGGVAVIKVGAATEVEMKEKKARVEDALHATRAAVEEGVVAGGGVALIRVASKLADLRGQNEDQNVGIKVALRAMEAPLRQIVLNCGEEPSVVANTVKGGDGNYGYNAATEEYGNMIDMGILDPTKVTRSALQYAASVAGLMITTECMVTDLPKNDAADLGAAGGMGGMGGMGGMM

With `Cc1cc(C(C#N)c2ccc(Cl)cc2)c(Cl)cc1NC(=O)c1cccc(O)c1` (stereo not drawn) [Compound 65, N-(5-chloro-4-((4-chlorophenyl)(cyano)methyl)-2-methylphenyl)-3-hydroxybenzamide], the IC50 on native MDH (setting [1]) is more than 63 µM; at GroEL/ES, 55 µM; at HSP60/10 (setting [2]), 33 µM.
With `Cc1cc(C(C#N)c2ccc(Cl)cc2)c(Cl)cc1NC(=O)c1ccc(Br)cc1` (stereo not drawn) [Compound 75, 4-bromo-N-(5-chloro-4-((4-chlorophenyl)(cyano)methyl)-2-methylphenyl)benzamide], the IC50 was more than 63 µM on native MDH (setting [1]), 58 µM on GroEL/ES and more than 100 µM on HSP60/10 (setting [2]).
Regarding `Cc1cc(C(C#N)c2ccc(Cl)cc2)c(Cl)cc1NC(=O)c1ccccc1O` (stereo not drawn) [Compound 64, N-(5-chloro-4-((4-chlorophenyl)(cyano)methyl)-2-methylphenyl)-2-hydroxybenzamide], the IC50 on native MDH (setting [1]) is more than 63 µM; against GroEL/ES, 33 µM; on HSP60/10 (setting [2]), 50 µM.
For the compound `O=C(Nc1ccc(OCc2ccccc2)cc1)c1cc(Cl)ccc1O` [Compound 103, N-(4-(benzyloxy)phenyl)-5-chloro-2-hydroxybenzamide], the IC50 was more than 63 µM at native MDH (setting [3]), 44 µM on GroEL/ES and more than 100 µM at HSP60/10 (setting [4]).
Turning to `O=C(Nc1ccc(Oc2ccccc2)c(Cl)c1)c1cc(Cl)ccc1O` [Compound 91, 5-chloro-N-(3-chloro-4-phenoxyphenyl)-2-hydroxybenzamide], the IC50 on native MDH (setting [3]) was more than 63 µM; against GroEL/ES, 51 µM; at HSP60/10 (setting [4]), 22 µM.
Turning to `Cc1ccc(O)c(C(=O)Nc2cc(Cl)c(C(C#N)c3ccc(Cl)cc3)cc2C)c1` (stereo not drawn) [Compound 60, N-(5-chloro-4-((4-chlorophenyl)(cyano)methyl)-2-methylphenyl)-2-hydroxy-5-methylbenzamide], the results for the IC50 on native MDH (setting [1]), at GroEL/ES and at HSP60/10 (setting [2]) were more than 63 µM, 41 µM and 85 µM, respectively.
In the case of `COc1c(Cl)cccc1C(=O)Nc1cc(Cl)c(C(C#N)c2ccc(Cl)cc2)cc1C` (stereo not drawn) [Compound 53, 3-chloro-N-(5-chloro-4-((4-chlorophenyl)(cyano)methyl)-2-methylphenyl)-2-methoxybenzamide], the IC50 at native MDH (setting [1]) was more than 63 µM; against GroEL/ES it was 81 µM; at HSP60/10 (setting [2]), more than 100 µM.
As to `COc1c(Br)cc(Br)cc1C(=O)Nc1cc(Cl)c(C(C#N)c2ccc(Cl)cc2)cc1C` (stereo not drawn) [Compound 45, 3,5-dibromo-N-(5-chloro-4-((4-chlorophenyl)(cyano)methyl)-2-methylphenyl)-2-methoxybenzamide], the IC50 is more than 63 µM on native MDH (setting [1]), 30 µM at GroEL/ES and more than 100 µM on HSP60/10 (setting [2]).
In the same order, the values of `Cc1cc(C(C#N)c2ccc(Cl)cc2)c(Cl)cc1NC(=O)c1cc(Cl)cc(Cl)c1O` (stereo not drawn) [Compound 52, 3,5-dichloro-N-(5-chloro-4-((4-chlorophenyl)(cyano)methyl)-2-methylphenyl)-2-hydroxybenzamide] are 5.5 µM, 3.7 µM and 5.2 µM.
In the case of `Cc1cc(C(C#N)c2ccc(Cl)cc2)c(Cl)cc1NC(=O)c1cccc(Cl)c1O` (stereo not drawn) [Compound 54, 3-chloro-N-(5-chloro-4-((4-chlorophenyl)(cyano)methyl)-2-methylphenyl)-2-hydroxybenzamide], the IC50 at native MDH (setting [1]) turned out to be 57 µM; against GroEL/ES, 14 µM; at HSP60/10 (setting [2]) it was 6.4 µM.
With `Cc1cc(C(C#N)c2ccc(Cl)cc2)c(Cl)cc1NC(=O)c1ccc(F)cc1` (stereo not drawn) [Compound 81, N-(5-chloro-4-((4-chlorophenyl)(cyano)methyl)-2-methylphenyl)-4-fluorobenzamide], the IC50 was more than 63 µM on native MDH (setting [1]), 77 µM at GroEL/ES and more than 100 µM at HSP60/10 (setting [2]).
For `Cc1cc(C(C#N)c2ccc(Cl)cc2)c(Cl)cc1NC(=O)c1cc(Cl)ccc1O` (stereo not drawn) [Compound 58, 5-chloro-N-(5-chloro-4-((4-chlorophenyl)(cyano)methyl)-2-methylphenyl)-2-hydroxybenzamide], the IC50 on native MDH (setting [1]) is more than 63 µM; at native MDH (setting [3]), more than 63 µM; against GroEL/ES it was 24 µM; on HSP60/10 (setting [2]), 40 µM.
Regarding `O=C(Nc1ccc(Oc2ccc(Cl)cc2)c(Cl)c1)c1cc(I)cc(I)c1O` [Rafoxanide, reference compound], the IC50 against native MDH amounted to 17 µM; at GroEL/ES (Table 1, 37° C., 1 mM ATP, read-out: Biochemical Assay IC50 GroEL/ES-dMDH Refolding) it was 3.8 µM; at HSP60/10, 2.7 µM.
As to `COc1c(Cl)cc(Cl)cc1C(=O)Nc1cc(Cl)c(C(C#N)c2ccc(Cl)cc2)cc1C` (stereo not drawn) [Compound 51, 3,5-dichloro-N-(5-chloro-4-((4-chlorophenyl)(cyano)methyl)-2-methylphenyl)-2-methoxybenzamide], the results for the IC50 on native MDH (setting [1]), on GroEL/ES and on HSP60/10 (setting [2]) were more than 63 µM, 38 µM and 86 µM, respectively.
In the case of `Cc1cc(C(C#N)c2ccc(Cl)cc2)c(Cl)cc1NC(=O)c1cccc(Cl)c1` (stereo not drawn) [Compound 77, 3-chloro-N-(5-chloro-4-((4-chlorophenyl)(cyano)methyl)-2-methylphenyl)benzamide], the IC50 was more than 63 µM on native MDH (setting [1]), 63 µM at GroEL/ES and more than 100 µM at HSP60/10 (setting [2]).
Regarding `Cc1cc(C(C#N)c2ccc(Cl)cc2)c(Cl)cc1NC(=O)c1cc(I)cc(I)c1O` (stereo not drawn) [Closantel, reference compound], the IC50 on native MDH (Table 1, compounds added after refolding and EDTA quench, read-out: Biochemical Assay IC50 Native MDH Activity) was determined as 6 µM; at HSP60/10 (Table 1, 37° C., 1 mM ATP, read-out: Biochemical Assay IC50 HSP60/10-dMDH Refolding), 3 µM.
